In brackets after ≈: the same amount, converted by molar mass. One block for each molecule: values may come before it.
Experiments:
[1] = Clearance in CD rat at 1 mg/kg, iv and 1 mg/kg, po; conditions: in vivo
[2] = Solubility of the compound by chemiluminescent nitrogen detection assay; type: physicochemical
[3] = molecular target: T1, C-C chemokine receptor type 4 (Homo sapiens, UniProt P51679); assay: Antagonist activity at human CCR4 expressed in CHO membranes assessed as inhibition of [35S]-GTPgammaS binding by scintillation counting; type: functional, cell membranes
T1 sequence (P51679 whole entry): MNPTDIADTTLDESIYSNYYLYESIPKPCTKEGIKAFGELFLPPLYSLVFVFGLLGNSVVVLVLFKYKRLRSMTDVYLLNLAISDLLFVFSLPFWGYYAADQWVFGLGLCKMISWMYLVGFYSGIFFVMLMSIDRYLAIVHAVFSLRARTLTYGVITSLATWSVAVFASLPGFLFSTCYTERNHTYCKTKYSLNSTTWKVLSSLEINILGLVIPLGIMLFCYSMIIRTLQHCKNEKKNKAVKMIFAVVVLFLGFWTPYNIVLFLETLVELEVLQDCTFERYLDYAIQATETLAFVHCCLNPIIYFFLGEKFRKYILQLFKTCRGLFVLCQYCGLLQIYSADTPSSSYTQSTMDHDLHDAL

[4] = system: Canis familiaris; assay: Clearance in beagle dog at […], iv and 1.1 mg/kg, po relative to liver blood flow; type: ADME, organism-based, Canis lupus familiaris; conditions: in vivo
[5] = Permeability across MDCK cells; type: ADME, cell-based, Canis lupus familiaris; conditions: dog, read-out: permeability
[6] = Oral bioavailability in beagle dog at 1.1 mg/kg; type: ADME, organism-based, Canis lupus familiaris; conditions: in vivo
[7] = molecular target: T1, C-C chemokine receptor type 4
Description: Displacement of [125I]TARC from human CCR4 expressed in CHO membranes by SPA

[8] = Volume of distribution at steady state in beagle dog at […], iv and 1.1 mg/kg, po; type: ADME, organism-based, Canis lupus familiaris; conditions: in vivo, read-out: Vdss
[9] = Oral bioavailability in CD rat at 1 mg/kg; type: ADME, organism-based; conditions: in vivo
[10] = Clearance in beagle dog at […], iv and 1.1 mg/kg, po; type: ADME, organism-based, Canis lupus familiaris; conditions: in vivo
[11] = molecular target: T1, C-C chemokine receptor type 4; assay: Antagonist activity at human CCR4 in human whole blood assessed as inhibition of TARC-induced CD4+ CCR4+lymphocyte chemotaxis measuring F-actin content; type: functional, tissue-based; conditions: read-out: pA2 (converted)
[12] = system: Rattus norvegicus; assay: Clearance in CD rat at 1 mg/kg, iv and 1 mg/kg, po relative to liver blood flow; type: ADME, organism-based; conditions: in vivo
[13] = Volume of distribution at steady state in CD rat at 1 mg/kg, iv and 1 mg/kg, po; type: ADME, organism-based; conditions: in vivo, read-out: Vdss
[14] = Volume of distribution at steady state in beagle dog at 0.54 mg/kg, iv and 1.1 mg/kg, po; type: ADME, organism-based, Canis lupus familiaris; conditions: in vivo, read-out: Vdss

clearance [1]: 15 mL/min/kg | solubility [2]: 162 µg/mL (≈ 295 µM) | IC50 [3]: 14.8 nM | CLH [4]: 29% | Papp [5]: 13.2 ×10⁻⁶ cm/s | bioavailability [6]: 97% | Ki [7]: 10 nM | Vd [8]: 2.2 L/kg | bioavailability [9]: 85% | clearance [10]: 9 mL/min/kg | Kb [11]: 631 nM | CLH [12]: 18% | Vd [13]: 1.9 L/kg
SMILES: COc1cccc2c1c(NS(=O)(=O)c1ccc(Cl)s1)nn2Cc1cccc(CNC(=O)C(C)(C)O)c1

solubility [2]: 167 µg/mL (≈ 321 µM) | IC50 [3]: 27.5 nM | Ki [7]: 15.8 nM | Kb [11]: 2000 nM
SMILES: COc1cccc2c1c(NS(=O)(=O)c1ccc(Cl)s1)nn2Cc1cccc(CNC(=O)CO)c1

solubility [2]: 140 µg/mL (≈ 294 µM) | IC50 [3]: 55 nM | Ki [7]: 39.8 nM | Kb [11]: 1580 nM
SMILES: COc1cccc2c1c(NS(=O)(=O)c1ccc(Cl)s1)nn2Cc1cccc(C(N)=O)c1

solubility [2]: 17 µg/mL (≈ 36.7 µM) | IC50 [3]: 91.2 nM | Ki [7]: 100 nM | Kb [11]: 1000 nM
SMILES: COc1cccc2c1c(NS(=O)(=O)c1ccc(Cl)s1)nn2Cc1cccc(CN)c1

solubility [2]: 151 µg/mL (≈ 291 µM) | IC50 [3]: 129 nM
SMILES: COc1cccc2c1c(NS(=O)(=O)c1ccc(Cl)s1)nn2Cc1cccc(CN(C)C(C)=O)c1

solubility [2]: 124 µg/mL (≈ 246 µM) | Papp [5]: 25.4 ×10⁻⁶ cm/s | bioavailability [6]: 49% | bioavailability [9]: 100% | Vd [13]: 0.57 L/kg | Vd [14]: 3.2 L/kg
SMILES: COc1cccc2c1c(NS(=O)(=O)c1ccc(Cl)s1)nn2Cc1cccc(CNC(C)=O)c1

solubility [2]: 167 µg/mL (≈ 340 µM) | IC50 [3]: 79.4 nM | Ki [7]: 316 nM
SMILES: CNC(=O)c1cccc(Cn2nc(NS(=O)(=O)c3ccc(Cl)s3)c3c(OC)cccc32)c1

solubility [2]: 127 µg/mL (≈ 274 µM) | IC50 [3]: 32.4 nM | Ki [7]: 39.8 nM | Kb [11]: 6310 nM
SMILES: COc1cccc2c1c(NS(=O)(=O)c1ccc(Cl)s1)nn2Cc1cccc(CO)c1

solubility [2]: 146 µg/mL (≈ 273 µM) | IC50 [3]: 12.6 nM | Ki [7]: 7.94 nM | Kb [11]: 631 nM
SMILES: COc1cccc2c1c(NS(=O)(=O)c1ccc(Cl)s1)nn2Cc1cccc(CNC(=O)C(C)O)c1 (centres undefined)

solubility [2]: 160 µg/mL (≈ 317 µM)
SMILES: COc1cccc2c1c(NS(=O)(=O)c1ccc(Cl)s1)nn2Cc1cccc(C(=O)N(C)C)c1

Second part, the molecule before the results:

SMILES: COc1ccc(Cn2nc(NS(=O)(=O)c3ccc(Cl)s3)c3c(OC)cccc32)cc1OC
solubility [2]: 46 µg/mL (≈ 93.1 µM) | IC50 [3]: 22.9 nM | Ki [7]: 20 nM | Kb [11]: 2510 nM

SMILES: COc1ccc(COc2nc(Br)cnc2NS(=O)(=O)c2ccc(C)cc2)cc1OCCN(C)C
solubility [2]: 170 µg/mL (≈ 308 µM)

SMILES: COc1cccc2c1c(NS(=O)(=O)c1ccc(Cl)s1)nn2Cc1ccc(CO)cc1
solubility [2]: 123 µg/mL (≈ 265 µM) | IC50 [3]: 47.9 nM | Ki [7]: 50.1 nM

SMILES: COc1cccc2c1c(NS(=O)(=O)c1ccc(Cl)s1)nn2Cc1ccccc1CO
solubility [2]: 74 µg/mL (≈ 159 µM) | IC50 [3]: 324 nM | Ki [7]: 251 nM

SMILES: COc1ccc(Cn2nc(NS(=O)(=O)c3ccc(Cl)s3)c3c(OC)cccc32)cc1
solubility [2]: 7 µg/mL (≈ 15.1 µM) | Ki [7]: 251 nM

SMILES: COc1cccc2c1c(NS(=O)(=O)c1ccc(Cl)s1)nn2Cc1ccccc1
solubility [2]: 1 µg/mL (≈ 2.3 µM) | IC50 [3]: 389 nM | Ki [7]: 251 nM | Kb [11]: 6310 nM

SMILES: COc1cccc2c1c(NS(=O)(=O)c1ccc(Cl)s1)nn2Cc1ccc(CNC(C)=O)cc1
solubility [2]: 104 µg/mL (≈ 206 µM) | Ki [7]: 158 nM

SMILES: COc1ccccc1Cn1nc(NS(=O)(=O)c2ccc(Cl)s2)c2c(OC)cccc21
solubility [2]: 12 µg/mL (≈ 25.9 µM) | Ki [7]: 158 nM

SMILES: COc1cccc(Cn2nc(NS(=O)(=O)c3ccc(Cl)s3)c3c(OC)cccc32)c1
solubility [2]: 12 µg/mL (≈ 25.9 µM) | IC50 [3]: 158 nM | Ki [7]: 126 nM
